# From patent US9265268B2, “Method of handling bananas” (priority 2009, dated 2016)
# Columns and labels:
# bananas [1] = assay: Example 2A: evaluation process A (4 days post-MCP in bag at 14° C., then 7 days at approx. 22° C.); assay type: in vivo, Musa; settings: for Color Stage (mean) / Sugar Spots (mean %): 4 days in bag at 14° C., then 7 days at approx. 22° C.
# From the text: The color of banana peels is rated according to a seven stage rating scale: stage 1 (dark green); stage 2 (all light green); stage 3 (half green and half yellow); stage 4 (more yellow than green); stage 5 (green tips and necks); stage 6 (all yellow; maybe light green necks, no green tips); stage 7 (yellow flecked with brown). Consumers generally prefer to eat bananas in stage 5 or stage 6.
# Bananas were harvested at 13 weeks of age. Fruit bunches were separated into hands, then washed, and excess latex was removed in chlorinated water tanks using standard commercial practices. The washed hands of bananas were further broken into clusters and treated with fungicide. Clusters were placed into plastic bags; each bag held approximately 1.4 kg (3 lbs) of bananas. The bananas remained in these bags until they were removed for evaluation (see below).
# The plastic bags were either T bags or were modified-atmosphere bags (“MAP” bags). The T bags (also called “PE bags” herein) were typical of bags normally used in commerce for bananas. The bags were then placed into cartons. Each carton held 13 bags. Each carton either held MAP bags only or else held PE bags only. 20 cartons of MAP bags and 20 cartons of PE bags were prepared.
# The cartons were placed in a refrigerated truck and transported to a storage facility. The distance from harvest to storage was approximately 100 km. The temperature in the refrigerated truck was 14 to 18° C. To simulate the effect of shipping over long distances, the cartons were placed in conventional cold storage room at 14° C. for two weeks. In storage, the cartons were placed so that air could circulate between and around each carton.
# After the storage period, the thermostat of the holding room was raised to 18° C., and no further action was taken until the holding room was at 18° C. for 12 hours. Bananas were ripened using a 5-day schedule, as follows. The temperatures shown are pulp temperatures; if necessary, the thermostat was lowered so that pulp temperature remained at the desired temperature despite any respiration that may be taking place in the bananas.
# On day 5 at approximately 4 pm, the cartons were divided in to seven groups: one untreated control (“UTC”) group (6 cartons) and six treatment groups. Each group had equal number of PE cartons and MAP cartons. The six treatment groups were as follows:
# UTC cartons were placed in a shed that had good ventilation. The remaining cartons remained in the holding room. Four airtight tents were erected in the holding room. Each tent held all the cartons for one of the treatment groups PE-3-C, PE-10-C, MAP-3, and MAP-10.
# At day 5 at approximately 4 pm, the bananas had reached color stage 2.5 to 3.5. Treatment groups PE-3-C, PE-10-C, MAP-3, and MAP-10 were then exposed to 1-MCP overnight at the concentrations shown above.
# Some of the bananas from each group described in Example 2 were evaluated by process “A” as follows: After treatment groups PE-3-C, PE-10-C, MAP-3, and MAP-10 received exposure to 1-MCP, the bananas remained in their bags in the holding room at 14° C. for 4 days; then the bananas were removed from the bags and stored at approximately 22° C. for 7 days; then the bananas were evaluated.
# bananas [2] = assay: Example US-4: placement into MAP after exposure to 1-MCP; assay type: in vivo, Musa; settings: 1000 ppb, Day #8
# From the text: Bananas were harvested and shipped to Ephrata, Pa. as in Example US-1 above. The bananas were also ripened as in Example US-1, except that the bananas remained in the bags in which they were shipped (poly liners) throughout the ripening process. Some of the poly liners were exposed to 1-MCP (1000 ppb) as in Example US-1 above, while others were not. Immediately after the conclusion of the exposure to 1-MCP, bananas were removed from the poly liners, divided into bunches. Some bunches had approximately of 1.4 kg (3 lb) and were placed into T-bags as described above. Other bunches were approximately 18 kg (40 lb) and were placed into MAP type D-40 as described above, using standard layering technique that interposes layers of the bag in between layers of bananas. Then the bananas were stored and evaluated as in Example US-1. Also, the bananas were eaten, and the firmness of the pulp was evaluated along with the overall quality of the eating experience.
# [3] = MAP-10: MAP bag, 1000 ppb 1-MCP
# [4] = PE-10-C: PE bag, 1000 ppb 1-MCP
smiles,measurement,setting,value
"CC1=CC1 [1-MCP, 1-methylcyclopropene]",Comments (additional observations),"bananas [1]; MAP-3: MAP bag, 300 ppb 1-MCP",Fruit with excellent bright yellow color. Only high
same,Delay in sugar spot development longer than MAP-0,"bananas [1]; MAP-3: MAP bag, 300 ppb 1-MCP",at least three
same,Color Stage (mean),"bananas [1]; MAP-3: MAP bag, 300 ppb 1-MCP",6.3
same,Sugar Spots (mean %),"bananas [1]; MAP-3: MAP bag, 300 ppb 1-MCP",3%
same,Comments (additional observations),bananas [1]; [3],"Almost all fruit was at the right color for sale,"
same,Delay in sugar spot development longer than MAP-0,bananas [1]; [3],at least three
same,Color Stage (mean),bananas [1]; [3],6.1
same,Sugar Spots (mean %),bananas [1]; [3],2%
same,Comments (additional observations),"bananas [1]; PE-3-C: PE bag, 300 ppb 1-MCP",Some fruit was in a good color stage. However most
same,Color Stage (mean),"bananas [1]; PE-3-C: PE bag, 300 ppb 1-MCP",6.8
same,Sugar Spots (mean %),"bananas [1]; PE-3-C: PE bag, 300 ppb 1-MCP",35%
same,Comments (additional observations),bananas [1]; [4],Some fruit was in a good color stage. However most
same,Color Stage (mean),bananas [1]; [4],6.9
same,Sugar Spots (mean %),bananas [1]; [4],73%
same,Average color stage,bananas [2]; 1-MCP only (T-bag),4.71
same,Average sugar spot rating,bananas [2]; 1-MCP only (T-bag),3
same,eating experience,bananas [2]; 1-MCP only (T-bag),mediocre
same,pulp,bananas [2]; 1-MCP only (T-bag),soft
same,Average color stage,bananas [2]; MAP (type D-40) and 1-MCP,4.42
same,Average sugar spot rating,bananas [2]; MAP (type D-40) and 1-MCP,1
same,eating experience,bananas [2]; MAP (type D-40) and 1-MCP,excellent
same,pulp,bananas [2]; MAP (type D-40) and 1-MCP,firm
